Measured values from ChEMBL document CHEMBL1141209, “Carbonic anhydrase inhibitors: inhibition of the human isozymes I, II, VA, and IX with a library of substituted difluoromethanesulfonamides” (Bioorg Med Chem Lett, 2005).

Key:
Carbonic anhydrase 9 = Carbonic anhydrase 9 (Homo sapiens, UniProt Q16790)
Description: Inhibition of cloned human transmembrane, tumor-associated isozyme CA IX

Carbonic anhydrase 2 = Carbonic anhydrase 2 (Homo sapiens, UniProt P00918)
Description: Inhibition of recombinant human cytosolic isozyme CA II

Carbonic anhydrase 1 = Carbonic anhydrase 1 (Homo sapiens, UniProt P00915)
Description: Inhibition of recombinant human cytosolic isozyme CA I

[1] = molecular target: Carbonic anhydrase 5A, mitochondrial (Homo sapiens, UniProt P35218)
Sequence of Carbonic anhydrase 5A, mitochondrial (P35218 whole entry): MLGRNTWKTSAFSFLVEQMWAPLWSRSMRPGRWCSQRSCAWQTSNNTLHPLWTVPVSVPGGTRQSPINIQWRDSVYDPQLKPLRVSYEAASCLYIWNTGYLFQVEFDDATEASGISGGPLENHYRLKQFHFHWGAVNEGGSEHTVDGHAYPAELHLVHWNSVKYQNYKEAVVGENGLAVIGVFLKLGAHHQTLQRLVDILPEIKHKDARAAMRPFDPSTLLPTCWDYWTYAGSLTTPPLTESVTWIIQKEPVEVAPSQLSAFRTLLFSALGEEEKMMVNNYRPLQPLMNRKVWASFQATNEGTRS
Description: Inhibition of recombinant human mitochondrial isozyme CA VA

Sequence of Carbonic anhydrase 1 (P00915 whole entry): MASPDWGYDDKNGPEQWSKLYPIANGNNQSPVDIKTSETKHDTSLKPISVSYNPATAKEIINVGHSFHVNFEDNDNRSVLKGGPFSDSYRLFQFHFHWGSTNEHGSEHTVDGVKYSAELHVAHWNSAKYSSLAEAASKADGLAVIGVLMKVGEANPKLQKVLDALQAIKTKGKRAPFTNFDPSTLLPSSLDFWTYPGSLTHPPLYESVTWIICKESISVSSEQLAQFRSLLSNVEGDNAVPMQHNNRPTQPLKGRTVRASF

SMILES	Ki (Carbonic anhydrase 9) [nM]	Ki (Carbonic anhydrase 2) [nM]	Ki (Carbonic anhydrase 1) [nM]	Ki [1] [nM]
NS(=O)(=O)C(F)(F)c1ccc(Br)cc1	7730	–	–	–
Cc1cc(=O)oc2cc(OS(N)(=O)=O)ccc12	–	25	–	–
C[C@]12CC[C@@H]3c4ccc(C(F)(F)S(N)(=O)=O)cc4CC[C@H]3[C@@H]1CCC2=O	1730	670	96	129
NS(=O)(=O)C(F)(F)c1ccccc1 [PHENYLDIFLUOROMETHANESULFONAMIDE]	8500	–	–	–
NS(=O)(=O)Cc1ccccc1 [PHENYLMETHANESULFONAMIDE]	9300	–	–	–
NS(=O)(=O)C(F)(F)c1ccc([N+](=O)[O-])cc1	2420	–	–	–
NS(=O)(=O)C(F)(F)c1ccccc1Br	9280	–	–	–

Next, values leading:

Ki (Carbonic anhydrase 9) [nM]	Ki (Carbonic anhydrase 2) [nM]	Ki (Carbonic anhydrase 1) [nM]	Ki [1] [nM]	SMILES
250	–	–	–	Cc1ccc(C(F)(F)S(N)(=O)=O)cc1
208	80	116	1460	C[C@]12CC[C@@H]3c4ccc(CS(N)(=O)=O)cc4CC[C@H]3[C@@H]1CCC2=O
1490	–	–	–	NS(=O)(=O)C(F)(F)c1cccc(Br)c1
195	–	–	–	Cc1cc(=O)oc2cc(C(F)(F)S(N)(=O)=O)ccc12
240	–	–	–	Cc1cc(=O)oc2cc(CS(N)(=O)=O)ccc12
